Assay results as given in patent US8741940B2, “Microbicidal composition” (Rohm and Haas Company, priority 2005, dated 2014).

How the values were obtained:
Type in all cases: cell-based
[1] = tested on: Candida albicans (C. albicans—ATCC 10231); assay: Synergy test, microtiter plate high resolution MIC assay, yeast in PDB medium; set-up: key to SI (synergy index): SI = Qa/QA + Qb/QB; >1 antagonism, lower SI = greater synergy; Qb (Second Component B) / Qa (First Component A): unit: ppm; conditions: for MIC of the component acting alone (QA / QB): 25° C.
Protocol: (§1) When the sum of Qa/QA and Qb/QB is greater than one, antagonism is indicated. […] The lower the SI, the greater the synergy shown by that particular mixture. The minimum inhibitory concentration (MIC) of a microbicide is the lowest concentration tested under a specific set of conditions that prevents the growth of added microorganisms.
(§2) Synergy tests were conducted using standard microtiter plate assays with media designed for optimal growth of the test microorganism. Minimal salt medium supplemented with 0.2% glucose and 0.1% yeast extract (M9GY medium) was used for testing bacteria; Potato Dextrose Broth (PDB medium) was used for testing yeast and mold. In this method, a wide range of combinations of microbicides and other personal care raw materials was tested by conducting high resolution MIC assays in the presence of various concentrations of BBIT or MBIT. High resolution MICs were determined by adding varying amounts of microbicide to one column of a microtitre plate and doing subsequent […] dilutions using an automated liquid handling system to obtain a series of endpoints ranging from 2 ppm to 10,000 ppm active ingredient.
(§3) The bacteria were used at a concentration of about 5 ×10^6 bacteria per mL and the yeast and mold at 5×10^5 fungi per mL. These microorganisms are representative of natural contaminants in many consumer and industrial applications. […] (yeast and mold) or 30° C. (bacteria).
(§4) In each test, First Component (A) was BBIT and the Second Component (B) was the other commercial microbicide.
(§5) In each test, First Component (A) was MBIT and the Second Component (B) was the other commercial microbicide.

[2] = tested on: Aspergillus niger (A. niger—ATCC 16404); assay: Synergy test, microtiter plate high resolution MIC assay, mold in PDB medium; set-up: key to SI (synergy index): SI = Qa/QA + Qb/QB; >1 antagonism, lower SI = greater synergy; Qb (Second Component B) / Qa (First Component A): unit: ppm; conditions: for MIC of the component acting alone (QA / QB): 25° C.
Protocol: as §1, §2, §3, §4, §5

[3] = tested on: Escherichia coli (E. coli—ATCC #8739); assay: Synergy test, microtiter plate high resolution MIC assay, bacterium in M9GY medium; set-up: key to SI (synergy index): SI = Qa/QA + Qb/QB; >1 antagonism, lower SI = greater synergy; Qa (First Component A) / Qb (Second Component B): unit: ppm; conditions: for MIC of the component acting alone (QA / QB): 30° C.
Protocol: as §1, §2, §3, §4, §5

[4] = C. albicans 10231, PDB, 24 hours
[5] = C. albicans 10231, PDB, 24 hours, alone where Qa = 0, otherwise in the mixture
[6] = A. niger 16404, PDB, 3 days, alone where Qa = 0, otherwise in the mixture
[7] = E. coli 8739, M9GY, 48 hours, alone where Qa = 0, otherwise in the mixture
[8] = A=MBIT, B=Benzalkonium chloride (Hyamine 3500), C. albicans 10231 - PDB, 24 hours
[9] = A=MBIT, B=Benzalkonium chloride (Hyamine 3500), A. niger 16404 - PDB, 4 days
[10] = A=MBIT, B=Benzalkonium chloride (Hyamine 3500), E. coli 8739 - M9GY, 24 hours
[11] = A=MBIT, B=DMDM Hydantoin (DMDMH), C. albicans 10231 - PDB, 24 hours
[12] = A=MBIT, B=DMDM Hydantoin (DMDMH), A. niger 16404 - PDB, 3 days
[13] = A=MBIT, B=DMDM Hydantoin (DMDMH), E. coli 8739 - M9GY, 24 hours
[14] = A=MBIT, B=Benzisothiazolinone (BIT), C. albicans 10231 - PDB, 48 hours
[15] = A=MBIT, B=Benzisothiazolinone (BIT), A. niger 16404 - PDB, 7 days
[16] = A=MBIT, B=Benzisothiazolinone (BIT), E. coli 8739 - M9GY, 24 hours
[17] = A=MBIT, B=dithio-2,2′-bis(N-methylbenzamide) (DTBMA), C. albicans 10231 - PDB, 24 hours
[18] = A=MBIT, B=dithio-2,2′-bis(N-methylbenzamide) (DTBMA), A. niger 16404 - PDB, 3 days
[19] = A=MBIT, B=dithio-2,2′-bis(N-methylbenzamide) (DTBMA), E. coli 8739 - M9GY, 24 hours

Compound: linoleamidopropyl PG-dimonium chloride phosphate
- SI (synergy index) [1, 4]: 1.00
- Qb (concentration of second component producing the end point, MIC) [1, 5]: 1000 ppm
- SI ([1]; C. albicans 10231 - PDB, 24 hours, BBIT with Phospholipid EFA): 1.00
- SI (synergy index) ([2]; A. niger 16404, PDB, 3 days): 1.00
- Qb (concentration of second component producing the end point, MIC) [2, 6]: 2000 ppm
- SI ([2]; A. niger 16404 - PDB, 4 days, BBIT with Phospholipid EFA): 1.00
- SI (synergy index) ([3]; E. coli 8739, M9GY, 48 hours): 1.00
- Qb (concentration of second component producing the end point, MIC) [3, 7]: 500 ppm
- SI ([3]; E. coli 8739 - M9GY, 48 hours, BBIT with Phospholipid EFA): 1.00

Compound: Benzalkonium chloride
- Qb (Second Component B) [1, 8]: 60
- SI (synergy index) [1, 8]: 1.00
- MIC of the component acting alone (QA / QB) [1, 4]: 60 ppm
- MIC of the component acting alone (QA / QB) ([2]; A. niger 16404, PDB, 7 days): 200 ppm
- Qb (Second Component B) [2, 9]: 200
- SI (synergy index) [2, 9]: 1.00
- Qb (Second Component B) [3, 10]: 10
- SI (synergy index) [3, 10]: 1.00
- MIC of the component acting alone (QA / QB) ([3]; E. coli 8739, M9GY, 48 hours): 3 ppm

Compound: CC1(C)C(=O)N(CO)C(=O)N1CO [DMDM Hydantoin, 1,3-dimethylol-5,5-dimethylhydantoin]
- Qb (Second Component B) [1, 11]: 3000
- SI (synergy index) [1, 11]: 1.00
- SI ([1]; C. albicans 10231 - PDB, 24 hours, BBIT + DMDMH): 1.00
- Qb (Second Component B = DMDMH) ([1]; C. albicans 10231 - PDB, 24 hours, DMDMH alone (Qa 0) or in mixture with BBIT): 3000
- SI ([2]; A. niger 16404 - PDB, 7 days, BBIT + DMDMH): 1.00
- Qb (Second Component B = DMDMH) ([2]; A. niger 16404 - PDB, 7 days, DMDMH alone (Qa 0) or in mixture with BBIT): 1000
- Qb (Second Component B) [2, 12]: 1000
- SI (synergy index) [2, 12]: 1.00
- Qb (Second Component B) [3, 13]: 50
- SI (synergy index) [3, 13]: 1.00
- SI ([3]; E. coli 8739 - M9GY, 72 hours, BBIT + DMDMH): 1.00
- Qb (Second Component B = DMDMH) ([3]; E. coli 8739 - M9GY, 72 hours, DMDMH alone (Qa 0) or in mixture with BBIT): 200

Compound: CC(C)(C)CC(C)(C)c1ccc(OCCOCC[N+](C)(C)Cc2ccccc2)cc1 [Benzethonium chloride]
- Qb (Second Component B) ([1]; A=MBIT, B=Benzethonium chloride (Hyamine 1622), C. albicans 10231 - PDB, 24 hours): 4
- Qb (Second Component B) ([2]; A=MBIT, B=Benzethonium chloride (Hyamine 1622), A. niger 16404 - PDB, 4 days): 10
- Qb (Second Component B) ([3]; A=MBIT, B=Benzethonium chloride (Hyamine 1622), E. coli 8739 - M9GY, 24 hours): 20

Compound: O=c1[nH]sc2ccccc12 [Benzisothiazolinone, 1,2-benzisothiazolin-3-one]
- Qb (Second Component B) [1, 14]: 30
- SI (synergy index) [1, 14]: 1.00
- MIC of the component acting alone (QA / QB) ([1]; C. albicans 10231, PDB, 48 hours): 30 ppm
- MIC of the component acting alone (QA / QB) ([2]; A. niger 16404, PDB, 7 days): 100 ppm
- Qb (Second Component B) [2, 15]: 300
- SI (synergy index) [2, 15]: 1.00
- Qb (Second Component B) [3, 16]: 20
- SI (synergy index) [3, 16]: 1.00
- MIC of the component acting alone (QA / QB) ([3]; E. coli 8739, M9GY, 72 hours): 8 ppm

Compound: CNC(=O)c1ccccc1SSc1ccccc1C(=O)NC [DTBMA, dithio-2,2′-bis(N-methylbenzamide)]
- Qb (Second Component B) [1, 17]: 2000
- SI (synergy index) [1, 17]: 1.00
- SI ([1]; C. albicans 10231 - PDB, 24 hours, BBIT + DTBMA): 1.00
- Qb (Second Component B = DTBMA) ([1]; C. albicans 10231 - PDB, 24 hours, DTBMA alone (Qa 0) or in mixture with BBIT): 2000
- SI ([2]; A. niger 16404 - PDB, 7 days, BBIT + DTBMA): 1.00
- Qb (Second Component B = DTBMA) ([2]; A. niger 16404 - PDB, 7 days, DTBMA alone (Qa 0) or in mixture with BBIT): 1000
- Qb (Second Component B) [2, 18]: 800
- SI (synergy index) [2, 18]: 1.00
- Qb (Second Component B) [3, 19]: 80
- SI (synergy index) [3, 19]: 1.00
- SI ([3]; E. coli 8739 - M9GY, 48 hours, BBIT + DTBMA): 1.00
- Qb (Second Component B = DTBMA) ([3]; E. coli 8739 - M9GY, 48 hours, DTBMA alone (Qa 0) or in mixture with BBIT): 60

Compound: CCCCC(CC)CN1CN(CC(CC)CCCC)CC(C)(N)C1 (stereo not drawn) [Hexetidine]
- SI (synergy index) ([1]; C. albicans 10231, PDB, 72 hours): 1.00
- SI ([1]; C. albicans 10231 - PDB, 72 hours, BBIT + hexetidine): 1.00
- Qb (Second Component B = Hexetidine) ([1]; C. albicans 10231 - PDB, 72 hours, hexetidine alone (Qa 0) or in mixture with BBIT): 100
- MIC ([1]; Candida albicans, ATCC10231, C. albicans 10231, PDB, 72 hours, alone where Qa = 0, otherwise in the mixture, read-out: Qb (concentration of second component producing the end point, MIC)): 80 µg/mL
- SI (synergy index) ([2]; A. niger 16404, PDB, 3 days): 1.00
- SI ([2]; A. niger 16404 - PDB, 4 days, BBIT + hexetidine): 1.00
- Qb (Second Component B = Hexetidine) ([2]; A. niger 16404 - PDB, 4 days, hexetidine alone (Qa 0) or in mixture with BBIT): 100
- MIC ([2]; Aspergillus niger, ATCC16404, 72 h, A. niger 16404, PDB, 3 days, alone where Qa = 0, otherwise in the mixture, read-out: Qb (concentration of second component producing the end point, MIC)): 200 µg/mL
- SI (synergy index) ([3]; E. coli 8739, M9GY, 72 hours): 1.00
- SI ([3]; E. coli 8739 - M9GY, 72 hours, BBIT + hexetidine): 1.00
- Qb (Second Component B = Hexetidine) ([3]; E. coli 8739 - M9GY, 72 hours, hexetidine alone (Qa 0) or in mixture with BBIT): 200
- MIC ([3]; Escherichia coli, ATCC8739, E. coli 8739, M9GY, 72 hours, alone where Qa = 0, otherwise in the mixture, read-out: Qb (concentration of second component producing the end point, MIC)): 80 µg/mL

Compound: O=C(O)CN(CCN(CC(=O)O)CC(=O)O)CC(=O)O [EDTA, Ethylenediamine tetraacetic acid]
- Qb (Second Component B = EDTA) [1]: 600
- SI ([1]; C. albicans 10231 - PDB, 24 hours, BBIT + EDTA): 1.00
- Qb (Second Component B = EDTA) [2]: 1600
- SI ([2]; A. niger 16404 - PDB, 7 days, BBIT + EDTA): 1.00
- Qb (Second Component B = EDTA) [3]: 40000
- SI ([3]; E. coli 8739 - M9GY, 72 hours, BBIT + EDTA): 1.00

Compound: Hexylene glycol
- SI (synergy index) [1, 4]: 1.00
- Qb (concentration of second component producing the end point, MIC) [1, 5]: 20000 ppm
- SI ([1]; C. albicans 10231 - PDB, 24 hours, BBIT + hexylene glycol): 1.00
- Qb (Second Component B = Hexylene glycol) ([1]; C. albicans 10231 - PDB, 24 hours, hexylene glycol alone (Qa 0) or in mixture with BBIT): 20000
- SI (synergy index) ([2]; A. niger 16404, PDB, 3 days): 1.00
- Qb (concentration of second component producing the end point, MIC) [2, 6]: 20000 ppm
- SI ([2]; A. niger 16404 - PDB, 3 days, BBIT + hexylene glycol): 1.00
- Qb (Second Component B = Hexylene glycol) ([2]; A. niger 16404 - PDB, 3 days, hexylene glycol alone (Qa 0) or in mixture with BBIT): 20000
- SI (synergy index) ([3]; E. coli 8739, M9GY, 24 hours): 1.00
- Qb (concentration of second component producing the end point, MIC) ([3]; E. coli 8739, M9GY, 24 hours, alone where Qa = 0, otherwise in the mixture): 20000 ppm
- SI ([3]; E. coli 8739 - M9GY, 24 hours, BBIT + hexylene glycol): 1.00
- Qb (Second Component B = Hexylene glycol) ([3]; E. coli 8739 - M9GY, 24 hours, hexylene glycol alone (Qa 0) or in mixture with BBIT): 20000

Compound: cocamidopropyl PG-dimonium chloride phosphate
- SI (synergy index) [1, 4]: 1.00
- Qb (concentration of second component producing the end point, MIC) [1, 5]: 1000 ppm
- SI ([1]; C. albicans 10231 - PDB, 24 hours, BBIT with Phospholipid PTC): 1.00
- SI (synergy index) ([2]; A. niger 16404, PDB, 4 days): 1.00
- Qb (concentration of second component producing the end point, MIC) ([2]; A. niger 16404, PDB, 4 days, alone where Qa = 0, otherwise in the mixture): 1000 ppm
- SI ([2]; A. niger 16404 - PDB, 3 days, BBIT with Phospholipid PTC): 1.00
- SI (synergy index) ([3]; E. coli 8739, M9GY, 48 hours): 1.00
- Qb (concentration of second component producing the end point, MIC) [3, 7]: 100 ppm
- SI ([3]; E. coli 8739 - M9GY, 72 hours, BBIT with Phospholipid PTC): 1.00
